The target of assay [1] is T1, Son of sevenless homolog 1 (Homo sapiens, UniProt Q07889).
T1 sequence (Q07889 whole entry): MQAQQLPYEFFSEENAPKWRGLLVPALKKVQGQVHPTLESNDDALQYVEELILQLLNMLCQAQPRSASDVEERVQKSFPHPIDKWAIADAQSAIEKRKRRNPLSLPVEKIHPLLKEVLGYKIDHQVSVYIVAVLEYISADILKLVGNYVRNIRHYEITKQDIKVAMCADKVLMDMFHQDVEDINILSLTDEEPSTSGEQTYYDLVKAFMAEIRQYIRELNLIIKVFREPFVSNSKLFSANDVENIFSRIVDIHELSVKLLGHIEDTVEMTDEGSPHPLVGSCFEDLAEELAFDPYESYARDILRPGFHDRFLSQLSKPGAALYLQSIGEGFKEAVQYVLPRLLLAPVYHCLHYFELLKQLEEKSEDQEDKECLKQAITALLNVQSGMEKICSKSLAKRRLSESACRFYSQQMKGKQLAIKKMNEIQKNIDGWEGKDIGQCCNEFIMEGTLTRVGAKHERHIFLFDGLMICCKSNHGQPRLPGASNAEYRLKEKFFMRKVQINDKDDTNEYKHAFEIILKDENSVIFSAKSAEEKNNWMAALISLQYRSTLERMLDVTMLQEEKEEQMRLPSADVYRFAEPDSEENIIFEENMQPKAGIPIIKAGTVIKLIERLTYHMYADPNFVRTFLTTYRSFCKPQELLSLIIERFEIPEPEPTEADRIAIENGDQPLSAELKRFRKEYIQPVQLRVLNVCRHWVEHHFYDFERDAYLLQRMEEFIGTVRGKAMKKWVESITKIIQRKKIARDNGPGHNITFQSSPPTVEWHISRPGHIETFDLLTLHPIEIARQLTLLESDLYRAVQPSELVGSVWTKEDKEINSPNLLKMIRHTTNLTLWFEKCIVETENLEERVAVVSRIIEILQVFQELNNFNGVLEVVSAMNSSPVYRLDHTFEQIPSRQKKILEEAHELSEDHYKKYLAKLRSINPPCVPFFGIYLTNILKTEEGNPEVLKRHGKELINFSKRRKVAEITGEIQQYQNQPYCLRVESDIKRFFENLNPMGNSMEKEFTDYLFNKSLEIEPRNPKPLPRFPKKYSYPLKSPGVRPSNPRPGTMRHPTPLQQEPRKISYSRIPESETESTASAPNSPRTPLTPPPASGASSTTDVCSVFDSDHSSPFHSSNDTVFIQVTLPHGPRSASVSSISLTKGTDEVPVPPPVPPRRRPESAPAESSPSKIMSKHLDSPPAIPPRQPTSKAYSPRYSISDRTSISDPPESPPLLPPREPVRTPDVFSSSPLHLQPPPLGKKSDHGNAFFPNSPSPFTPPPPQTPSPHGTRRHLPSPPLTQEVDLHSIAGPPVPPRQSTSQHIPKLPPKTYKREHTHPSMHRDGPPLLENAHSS
Put plainly: Activation of human recombinant N-terminal His6-tagged SOS1 (564 to 1049 residues) expressed in BL21-RIL Escherichia coli assessed as SOS1-RAS complex formation by measuring exchange of GTP to BODIPY-GDP measured every 3 secs for 30 mins by nucleotide exchange assay.

Assay [2] deals with T2, Son of sevenless homolog 1 (Homo sapiens) (UniProt Q07889).
T2 sequence (whole entry): T1 sequence (Q07889 whole entry)
Put plainly: Activation of human recombinant N-terminal His6-tagged SOS1 (564 to 1049 residues) expressed in BL21-RIL Escherichia coli assessed as SOS1-RAS complex formation by measuring exchange of GTP to BODIPY-GDP measured every 3 secs for 30 mins by nucleotide exchange assay relative to control. Further details: concentration or dose not given beside the values.

The target in assay [3] is T1, Son of sevenless homolog 1. The assay can be described thus: Binding affinity to human recombinant N-terminal His6-tagged SOS1 (564 to 1049 residues) expressed in BL21-RIL Escherichia coli by fluorescent probe S2 based fluorescence polarization anisotrophy saturation binding assay.

This note sets out measurements from ChEMBL document CHEMBL4196202, “Discovery and Structure-Based Optimization of Benzimidazole-Derived Activators of SOS1-Mediated Nucleotide Exchange on RAS” (J Med Chem, 2018).

pEC50, pKd: −log10 of the molar value.

`Cc1cc2nc(N3CCC(N)CC3)n(Cc3ccc(F)c(Cl)c3)c2cc1C`: the negative-log EC50 (pEC50) in assay [1] is 5.18. Further, the Activity in assay [2] turned out to be 114%. Consider `Cc1cc(Cn2c(N3CCNCC3)nc3c(-c4cn[nH]c4)cc(Cl)cc32)cc(C)c1F`, for which the pKd in assay [3] was 6.74. `Cc1cc(Cn2c(N3CCNCC3)nc3c(-c4cccnn4)cc(Cl)cc32)cc(C)c1F`: in assay [3], the pKd is 6.35.

As for `Cc1cc2nc(N3CCNCC3)n(Cc3ccc(Cl)cc3)c2cc1C`, in assay [1], the negative logarithm of the EC50 (pEC50) was 4.91. Moreover, in assay [2], the Activity turned out to be 164%. In the case of `Cc1cc(Cn2c(N3CCNCC3)nc3c(-c4ccccc4CO)cc(Cl)cc32)cc(C)c1F`, the pKd in assay [3] was 6.85. Take `Fc1ccc(Cn2c(N3CCNCC3)nc3ccc(C(F)(F)F)cc32)cc1Cl`: the negative logarithm of the EC50 (pEC50) in assay [1] is 5.36. For the same molecule, the Activity in assay [2] amounted to 78%. On to `Cc1cc2c(cc1C)N(Cc1ccccc1)C1=NCCCN12`, for which, in assay [1], the pEC50 was 4.63. Besides, the Activity in assay [2] turned out to be 64%. For `Cc1ccccc1-c1cc(Cl)cc2c1nc(N1CCNCC1)n2Cc1cc(C)c(F)c(C)c1`, the pKd in assay [3] is 6.68. For the molecule `Cc1cc2nc(N3CCNCC3)n(Cc3ccc(F)c(C)c3)c2cc1C`, the pEC50 in assay [1] was 5.39. In assay [2], the Activity stood at 190%. On the same counts, the results for `Cc1cc2nc(N3CCNCC3)n(Cc3ccc(F)c(F)c3)c2cc1C` are 5.23 and 183%.

On to `Cc1cc2nc(N3CCNCC3)n(Cc3ccc(F)c(Cl)c3)c2cc1Cl`, for which the pEC50 in assay [1] was 5.52. Also, the Activity in assay [2] worked out at 200%. With `Cc1cc(Cn2c(N3CCNCC3)nc3c(-c4c(C)cccc4C)cc(Cl)cc32)cc(C)c1F`, the negative-log Kd (pKd) in assay [3] is 6.52.

On to `Cc1cc2nc(NCCN)n(Cc3ccc(F)c(Cl)c3)c2cc1C`, for which the pEC50 in assay [1] was 5.72. Further, the Activity in assay [2] worked out at 114%. For `Cc1cc2nc(C3CCNCC3)n(Cc3ccc(F)c(Cl)c3)c2cc1C`, in that order: 5.25 and 128%. For `Cc1cc2nc(N3CCNCC3)n(Cc3ccccc3)c2cc1C`, in that order: 5.07 and 122%. On the same counts, the results for `Fc1ccc(Cn2c(N3CCNCC3)nc3ccc(C4CC4)cc32)cc1Cl` are 4.61 and 65%.

With `Fc1ccc(Cn2c(N3CCNCC3)nc3ccc(Cl)cc32)cc1Cl`, the pEC50 in assay [1] is 6.00. For the same molecule, the Activity in assay [2] came out at 109%. Turning to `Fc1ccc(CN2C3=NCCCN3c3ccccc32)cc1`, in assay [1], the pEC50 is 4.20. Besides, in assay [2], the Activity turned out to be 40%. For `Cc1cc2nc(N3CCNCC3)n(Cc3ccc(F)c(C(F)(F)F)c3)c2cc1C`, in assay [1], the pEC50 was 5.09. Also, the Activity in assay [2] is 263%. For the molecule `Cc1cc2nc(N3CCNCC3)n(Cc3ccc(F)c(C4CC4)c3)c2cc1C`, the pEC50 in assay [1] was 4.93. In addition, in assay [2], the Activity was determined as 151%. On the same counts, the results for `Cc1ccc2nc(N3CCNCC3)n(Cc3ccc(F)c(Cl)c3)c2c1` are 5.62 and 106%.

In the case of `Cc1cc2nc(N3CCNCC3)n(Cc3cc(C)c(F)c(C)c3)c2cc1C`, the negative logarithm of the EC50 (pEC50) in assay [1] was 5.43. Moreover, in assay [2], the Activity was 270%.

As for `Cc1cc2nc(N3CCN(C)CC3)n(Cc3ccc(F)c(Cl)c3)c2cc1C`, the negative-log EC50 (pEC50) in assay [1] is 4.59. Besides, the Activity in assay [2] was determined as 143%. In the case of `Cc1cc2nc(N3CCCNCC3)n(Cc3ccc(F)c(Cl)c3)c2cc1C`, the pEC50 in assay [1] was 5.07. In assay [2], the Activity is 176%. For `Cc1cc2nc(N3CCNCC3)n(Cc3ccc(F)cc3)c2cc1C`, in that order: 5.23 and 130%. On to `Cc1cc2ncn(Cc3ccc(F)c(Cl)c3)c2cc1C`, for which, in assay [1], the negative-log EC50 (pEC50) is under 4.00.

Take `Cc1cc2nc(NC3CCNCC3)n(Cc3ccc(F)c(Cl)c3)c2cc1C`: in assay [1], the pEC50 was 4.43. In addition, the Activity in assay [2] stood at 129%. As to `Cc1ccc(Cn2c(N3CCNCC3)nc3cc(C)c(C)cc32)cc1`, the pEC50 in assay [1] is 4.44. In addition, in assay [2], the Activity stood at 93%.

Turning to `Fc1ccc(Cn2c(N3CCNCC3)nc3ccc(Br)cc32)cc1Cl`, the negative logarithm of the EC50 (pEC50) in assay [1] was 5.89. The Activity in assay [2] was determined as 115%. As for `Cc1cc2nc(N3CCNCC3)n(Cc3ccc(C(F)(F)F)cc3)c2cc1C`, the pEC50 in assay [1] was 4.71. In addition, the Activity in assay [2] is 148%.

The term pEC50 denotes the negative decadic logarithm of the EC50, by convention in mol/L. For orientation: pKd means the negative decadic logarithm of the Kd, by convention in mol/L.
